According to PubChem BioAssay (NCI):
Several values for one entry are separate records, joined by “and”; a condition that tells them apart may be missing. Identical values can stand only once.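 Grown in 96-well plates, cells were treated for 48 hours with each compound at five concentrations. Insufficient inhibition: endpoint recorded as highest concentration tested. GI50 is the concentration that inhibits growth by half. At the TGI there is no net growth.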 *1 amine or outer side, *2 acyl side, *3 side chain or, on linkers, in order; H or OH if unused. Where a SMILES comes first, the peptide text is derived from it. Bridges are numbered along the chain shown (N, C = ends). [ ]: non-standard residue; d: D form. The star is where a group is joined. ξ: configuration not given here. X4 = CCC(C)C(N[*:1])C(O)CC(=O)O[C@H](C(=O)C(C)C(=O)[*:2])C(C)C; NMeY = CN[C@@H](Cc1ccc(O)cc1)C(=O)O; ξNMeL = CNC(CC(C)C)C(=O)O; Cbz = O=C(OCc1ccccc1)*; Boc = CC(C)(C)OC(=O)*; Aib = CC(C)(N)C(=O)O; ξT = CC(O)C(N)C(=O)O; OBn = c1ccc(CO*)cc1; OtBu = CC(C)(C)O*; βAla = NCCC(=O)O

Legend:
Assay in all cases: growth of human tumour cells (NCI), 48 h
HCC-2998 colon = test system: HCC-2998 colon
HOP-92 NSCLC = test system: HOP-92 NSCLC
KM12 colon = test system: KM12 colon
MCF7 breast = test system: MCF7 breast
RXF 393 renal = test system: RXF 393 renal
SK-MEL-2 melanoma = test system: SK-MEL-2 melanoma
SR leukemia = test system: SR leukemia
IGROV1 ovarian = test system: IGROV1 ovarian
SF-539 CNS = test system: SF-539 CNS

Structure (SMILES)	TGI (HCC-2998 colon)	TGI (HOP-92 NSCLC) [µM]	TGI (KM12 colon) [µM]	TGI (MCF7 breast) [µM]	TGI (RXF 393 renal) [µM]	TGI (SK-MEL-2 melanoma) [µM]	TGI (SR leukemia) [µM]	TGI (IGROV1 ovarian) [µM]	TGI (SF-539 CNS) [µM]	GI50 (HOP-92 NSCLC) [µM]	GI50 (RXF 393 renal) [µM]	GI50 (SF-539 CNS) [µM]	GI50 (SK-MEL-2 melanoma) [µM]	GI50 (IGROV1 ovarian) [µM]	GI50 (MCF7 breast) [µM]
COC(=O)C1(C(=O)OC)N=C(C)OC1C(C)C (configuration not stated)	> 100 µM	> 100	> 100	> 100	> 100	> 100	> 100								
O=C(NNC(=S)Nc1ccccc1)c1csc(NC(=S)NC2CCCCC2)n1	> 100 µM	> 100	> 100	> 100		> 100	> 100	> 100	> 100						
CCC(C)C1NC(=O)C(NC(=O)C(CC(C)C)N(C)C(=O)[C@@H]2CCCN2)C(C)OC(=O)[C@H](Cc2ccc(OC)cc2)N(C)C(=O)[C@@H]2CCCN2C(=O)[C@H](CC(C)C)NC(=O)C(C)C(=O)[C@H](C(C)C)OC(=O)CC1O (some centres not stated) (H-P[ξNMeL][ξT][X4]LP[NMeY](Me); ester 3-C)	0.0104 µM and 0.0108 µM	0.0187					7.45	0.0107	0.00208						
CN1C2CC(=O)CC1[C@@H]1OC(c3ccccc3)O[C@H]21 (some centres not stated)	> 100 µM		> 100	> 100	> 100	> 100	> 100	> 100	> 100						
N#CC1=CNc2sccc2S1(=O)=O	> 100 µM	> 100	> 100	> 100		> 100		> 100	> 100						
O=C(c1ccco1)N(C(=S)OCc1ccccn1)c1ccccc1			> 100	> 100	> 100	> 100	8.58	> 100	> 100						
NC(=O)CC(Nc1ncc2c(n1)-c1ccccc1OC2)C(=O)O (configuration not stated)		> 100	> 100	> 100	> 100	> 100	> 100	> 100	> 100						
O=C(N=Nc1ccccc1Br)NNc1ccccc1Br	56.6 µM					> 100	> 100	> 100							
COc1ccc2c(c1)CCc1c-2n(CCN(C)C)c2ccc(OC)cc12	> 100 µM	> 100	86.7	69.9		40	> 100	79.5							
O=C(/C=C/c1ccc([N+](=O)[O-])cc1)c1nc2ccccc2[nH]1		> 100	> 100	> 100	> 100	> 100	11.3	17.9	> 73.6						
CC[N+](C)(CC)CCN1C(=O)c2ccccc2S1(=O)=O		> 100	> 100	> 100	> 100	> 100		> 100	> 100						
O=C1[C@@H]2Cc3c([nH]c4ccccc34)C(C3CCCCC3)N2C(=O)[C@@H]2CCCN12 (some centres not stated)		76.6	58.4	> 100	> 100	39.7	46.8	> 100							
NC(CCCCNC(=O)OCc1ccccc1)C(=O)NC(CCCCNC(=O)OCc1ccccc1)C(=O)ON1C(=O)CCC1=O (configuration not stated)	> 100 µM	> 100	> 100	> 100	> 100	> 100	> 100	> 100							
N#Cc1c2c(c(N3CCOCC3)n3c1nc1ccccc13)CCCC2	40.9 µM	38.8	> 100	87.1		31.8		34.9	39.3						
COc1ccc(OC)c2cc(Cc3ccc(N(C)C)cc3)c(=O)c(Cc3ccc(N(C)C)cc3)cc12	> 100 µM	> 100	> 100	> 100	> 100			> 100	> 100						
COc1cc(/C=C2/SC(c3ccccc3)N(c3cccc([N+](=O)[O-])c3)C2=O)cc(OC)c1OC (configuration not stated)	> 100 µM	> 100	> 100	> 100	> 100	> 100			> 100						
Nc1nc2c(ncn2C2C=CC(CO)O2)c(=O)[nH]1 (configuration not stated)		> 100	> 100	> 100	> 100	> 100	> 100								
CCOC(=O)c1sc2c(c1OC(=O)c1ccccc1)c(=O)n(-c1ccccc1)c(=S)n2-c1ccccc1	74.5 µM	79.2	> 100	> 100	> 100			43.3	47.7						

Structure (SMILES)	TGI (HCC-2998 colon)	TGI (HOP-92 NSCLC) [µM]	TGI (KM12 colon) [µM]	TGI (MCF7 breast) [µM]	TGI (RXF 393 renal) [µM]	TGI (SK-MEL-2 melanoma) [µM]	TGI (SR leukemia) [µM]	TGI (IGROV1 ovarian) [µM]	TGI (SF-539 CNS) [µM]	GI50 (HOP-92 NSCLC) [µM]	GI50 (RXF 393 renal) [µM]	GI50 (SF-539 CNS) [µM]	GI50 (SK-MEL-2 melanoma) [µM]	GI50 (IGROV1 ovarian) [µM]	GI50 (MCF7 breast) [µM]
OC1OC(c2ccco2)C(F)(F)C(F)(F)C1(F)F (configuration not stated)		> 100	> 100	> 100	> 100	> 100		> 100	> 100						
O=C1OS2(OCc3cccc4cccc2c34)c2ccccc21 (configuration not stated)	> 100 µM	> 100	> 100	> 100		> 100	> 100	> 100	> 100						
CSC1SCC2C(=O)N(C)C3(CC3C)C(=O)OCC(NC(=O)c3nc4ccccc4cc3O)C(=O)NC(C)C(=O)N(C)C1C(=O)N(C)C1(CC1C)C(=O)OCC(NC(=O)c1nc3ccccc3cc1O)C(=O)NC(C)C(=O)N2C (configuration not stated)	< 0.0001 µM	< 0.0001	< 0.0001	10.3	< 0.0001		< 0.0001	0.281	< 0.0001						
COc1ccc(-c2c(C#N)c(-c3ccccc3)n(NS(=O)(=O)c3ccccc3)c(=O)c2C#N)cc1	> 100 µM	> 100	> 100	> 100	> 100	> 100		> 100	> 100						
O=C(O)c1ccccc1/C=N\NC1=NCCCCN1	> 100 µM		> 100	> 100		> 100	> 100	> 100	> 100						
CC1=CC[C@@H]2CC[C@]3(C)[C@H](CC[C@@H]4[C@@]5(C)CCCNC(C)(C)[C@@H]5CC[C@]43C)[C@H]2[C@@H]1C		2.77			3.1	3.48			3.13	1.39	1.61	1.69	1.81		
CSc1ncc2c(n1)-c1ccccc1OC2N1CCCC1 (configuration not stated)		> 100	> 100	> 100	> 100	> 100	> 100	> 100	> 100						
O=C(NCCO)c1ccc(Cl)cc1	> 100 µM	> 100	> 100		> 100	> 100	> 100	> 100							
O=C1NC(N/N=C\c2ccccc2)=N/C1=C/c1ccc(Cl)cc1	36.9 µM		95.5	57.4	47.3	82.9	40.1	41.2	53.8						
CC(C)(C)OC(=O)CC(NC(=O)OC(C)(C)C)C(=O)NC(CCCCNC(=O)OCc1ccccc1)C(=O)NC(C)(C)C(=O)NCCC(=O)OCc1ccccc1 (configuration not stated) (Boc-D(OtBu)K(Cbz)[Aib][βAla]-OBn; configuration not given here)		> 100	> 100	> 100	> 100		> 100	> 100	> 100						
O=c1cc(-c2ccccc2)[nH]c2cccc(S)c12	4 µM	> 100	> 100	> 100	0.469		> 100	> 100	0.594						
COc1c/c(=C2/C=c3ccccc3=N2)[nH]/c1=C/c1[nH]c(C)cc1C				2.58		0.119		> 100					0.029	0.0724	0.0647
OCCN=C1Nc2ccc(Cl)cc2C(=S)N2CSC[C@@H]12	> 100 µM	> 100	> 100	> 100	> 100	> 100	> 100		> 100						
CSc1nncc(-c2cc3c(c(SC)n2)CCC3)n1			> 100		> 100	> 100		10.1							
CCCCN(c1ccccc1)c1ncnc2c1cnn2C	> 100 µM	> 100	> 100	> 100	89.4	78.1		> 100							
C/C=C/[C@H]1O[C@@](OC)([C@@H](C)[C@H](O)[C@H](C)[C@H]2OC(=O)/C(OC)=C/C(C)=C/[C@@H](C)[C@@H](O)[C@@H](C)[C@@H](O)[C@H](C)C/C(C)=C/C=C/[C@@H]2OC)CC(OC2CC(O)C(OC(N)=O)C(C)O2)[C@@H]1C (some centres not stated)	13.3 µM	11	12.7	16	15.7	1.15		15.1	< 0.01						
COc1ccc(CNc2nc(NCc3ccc(OC)cc3)nc(N3CCOCC3)n2)cc1		> 100	8.09	> 100	> 100	> 100	4.92	> 100	19.2						
COC(=O)C(C)Sc1nc2cc(Cl)ccc2s1 (configuration not stated)	> 100 µM	> 100	> 100	> 100	> 100			> 100	> 100						
